Experimental findings from ChEMBL document CHEMBL5550086, “Drug discovery targeting nicotinamide phosphoribosyltransferase (NAMPT): Updated progress and perspectives” (Bioorg Med Chem, 2024) are described below.

Data set [1] has as its target T1, Nicotinamide phosphoribosyltransferase (Homo sapiens, UniProt P43490). The experiment in a line: Activation of N-terminal His-tagged human NAMPT expressed in Escherichia coli BL 21 (DE3) using NAM and PRPP as substrates incubated for 15 mins in presence of ATP by fluorescence based spectrometer analysis.
The target in data set [2] is T2, Protein cereblon/Nicotinamide phosphoribosyltransferase (Homo sapiens, UniProt P43490+Q96SW2). The experiment in a line: PROTAC activity at CRBN/NAMPT in human Jurkat cells assessed as induction of intracellular NAMPT degradation incubated for 24 hrs by Western blot analysis. Type of data set: cell-based. A general note: A western blot detects proteins with antibodies after separation by electrophoresis.
Target sequence in this assay (P43490 whole entry): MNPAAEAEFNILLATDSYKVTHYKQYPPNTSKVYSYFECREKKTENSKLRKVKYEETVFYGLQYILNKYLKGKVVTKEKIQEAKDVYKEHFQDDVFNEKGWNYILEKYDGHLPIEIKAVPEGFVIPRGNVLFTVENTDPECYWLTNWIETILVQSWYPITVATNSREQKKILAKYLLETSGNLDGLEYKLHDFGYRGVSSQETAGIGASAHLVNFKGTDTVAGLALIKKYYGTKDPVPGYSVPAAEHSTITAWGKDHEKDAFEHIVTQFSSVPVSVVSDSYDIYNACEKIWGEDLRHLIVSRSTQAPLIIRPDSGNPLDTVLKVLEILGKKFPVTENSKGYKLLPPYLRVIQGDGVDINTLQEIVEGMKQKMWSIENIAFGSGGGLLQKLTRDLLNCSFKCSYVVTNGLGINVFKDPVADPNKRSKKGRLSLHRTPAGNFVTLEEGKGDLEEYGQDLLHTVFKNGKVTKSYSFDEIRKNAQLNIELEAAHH
Target sequence in this assay (Q96SW2 whole entry): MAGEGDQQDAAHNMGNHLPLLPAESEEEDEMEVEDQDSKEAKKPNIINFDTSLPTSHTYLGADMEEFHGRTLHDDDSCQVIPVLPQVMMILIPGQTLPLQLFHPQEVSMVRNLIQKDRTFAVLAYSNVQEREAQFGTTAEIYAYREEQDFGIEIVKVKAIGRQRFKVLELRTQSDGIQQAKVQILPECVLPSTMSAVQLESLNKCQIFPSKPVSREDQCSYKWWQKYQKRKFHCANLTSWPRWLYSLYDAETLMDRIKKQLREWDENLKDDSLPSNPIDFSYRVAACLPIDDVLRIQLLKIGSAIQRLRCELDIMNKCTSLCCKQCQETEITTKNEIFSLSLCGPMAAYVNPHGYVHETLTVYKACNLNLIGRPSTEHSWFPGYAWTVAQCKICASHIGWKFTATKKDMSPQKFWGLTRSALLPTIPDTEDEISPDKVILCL

The target in data set [3] is T2, Protein cereblon/Nicotinamide phosphoribosyltransferase. Kind of data set: PROTAC activity at CRBN/NAMPT in human Jurkat cells assessed as induction of intracellular NAMPT degradation at 5 uM incubated for 24 hrs by Western blot analysis relative to control. Type of data set: cell-based.
Target sequence in this assay (P43490 whole entry, looked up): as the sequence (P43490 whole entry) above
Target sequence in this assay (Q96SW2 whole entry, looked up): as the sequence (Q96SW2 whole entry) above
Data set [4] is described as follows: Anticancer activity against human NYH/VM cells assessed as reduction in cell growth. Type of data set: functional, cell-based.
A further data set deals with PC-3. The experiment in a line: Anticancer activity against human PC-3 cells. Type of data set: functional, cell-based.
In another data set the test system is HCT-116. The experiment in a line: Anticancer activity against human HCT-116 cells assessed as reduction in cell growth. Type of data set: functional, cell-based.
Data set [5] deals with Nicotinamide phosphoribosyltransferase (Mus musculus, UniProt Q99KQ4). The experiment in a line: Activation of N-terminal 6His-tagged mouse NAMPT measured for 20 mins by fluorescence based spectrometer analysis.
For data set [6], the target named is Nicotinamide phosphoribosyltransferase (Mus musculus) (UniProt Q99KQ4). Kind of data set: Activation of N-terminal 6His-tagged mouse NAMPT assessed as increase in intracellular NAD+ level measured for 20 mins by fluorescence based spectrometer analysis relative to control. Conditions: filed as activator. Type of data set: cell-based.
The subject of the next data set is A2780. Kind of data set: cells. Conditions: Homo sapiens, A2780, 72 h.
Data set [7] addresses T1, Nicotinamide phosphoribosyltransferase. The experiment in a line: Inhibition of NAMPT (unknown origin).
In a further data set the test system is HepG2. Kind of data set: cells. Conditions: Homo sapiens, HepG2, 48 h.
For data set [8], the target named is T1, Nicotinamide phosphoribosyltransferase. The experiment in a line: Activation of recombinant NAMPT (unknown origin) expressed in Escherichia coli by fluorescence based spectrometer analysis.
In another data set the target is Cytochrome P450 2C9 (Homo sapiens, UniProt P11712). The experiment in a line: Inhibition of CYP2C9 (unknown origin). Type of data set: ADME.
Cytochrome P450 2C9, sequence (P11712 whole entry): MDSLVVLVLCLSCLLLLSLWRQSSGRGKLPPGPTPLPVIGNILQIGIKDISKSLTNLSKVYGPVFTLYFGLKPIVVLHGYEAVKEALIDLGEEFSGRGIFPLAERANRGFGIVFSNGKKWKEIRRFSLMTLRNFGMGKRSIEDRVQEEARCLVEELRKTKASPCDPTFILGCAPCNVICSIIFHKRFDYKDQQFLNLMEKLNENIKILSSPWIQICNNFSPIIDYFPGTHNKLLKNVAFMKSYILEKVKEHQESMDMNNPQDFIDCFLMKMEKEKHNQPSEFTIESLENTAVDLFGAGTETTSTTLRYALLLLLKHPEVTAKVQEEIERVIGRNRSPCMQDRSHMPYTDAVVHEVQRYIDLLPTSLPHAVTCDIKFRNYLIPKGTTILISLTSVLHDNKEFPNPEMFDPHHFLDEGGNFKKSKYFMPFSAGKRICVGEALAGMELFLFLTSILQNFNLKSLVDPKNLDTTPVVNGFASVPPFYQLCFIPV

T1 sequence (P43490 whole entry): as the sequence (P43490 whole entry) above
Nicotinamide phosphoribosyltransferase (Mus musculus), sequence (Q99KQ4 whole entry, looked up): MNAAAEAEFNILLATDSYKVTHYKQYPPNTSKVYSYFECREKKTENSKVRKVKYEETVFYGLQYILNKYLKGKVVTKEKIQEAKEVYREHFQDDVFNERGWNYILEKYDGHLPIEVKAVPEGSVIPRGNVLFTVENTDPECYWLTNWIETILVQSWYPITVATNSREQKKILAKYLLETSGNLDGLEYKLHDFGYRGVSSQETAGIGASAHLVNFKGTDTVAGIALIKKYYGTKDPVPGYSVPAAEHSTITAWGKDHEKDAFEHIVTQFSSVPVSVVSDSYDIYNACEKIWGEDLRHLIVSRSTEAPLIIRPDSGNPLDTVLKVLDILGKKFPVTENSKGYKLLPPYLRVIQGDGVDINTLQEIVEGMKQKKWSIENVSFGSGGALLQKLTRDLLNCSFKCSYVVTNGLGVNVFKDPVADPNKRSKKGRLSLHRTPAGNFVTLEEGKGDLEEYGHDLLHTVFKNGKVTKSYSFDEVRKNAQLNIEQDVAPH
Nicotinamide phosphoribosyltransferase (Mus musculus, UniProt Q99KQ4), sequence (Q99KQ4 whole entry): as the sequence (Q99KQ4 whole entry, looked up) above

Consider `CCN(CC)C(=O)c1noc2cc(NC(=O)NCc3cnco3)ccc12`, for which the EC50 (as a rule, the concentration that produces a half-maximal response) in [1] worked out at 180 nM.

Take `O=C(/C=C/c1cccnc1)NCCCCC1CCN(C(=O)c2ccc(N3CCN(CCCCCC#Cc4cccc5c4CN(C4CCC(=O)NC4=O)C5=O)CC3)cc2)CC1` (stereo unspecified): the DC50 (as a rule, the concentration at which degradation of the target reaches its halfway point) in data set [2] was below 1 nM. For the same molecule, the maximum response (Emax) (commonly the maximal effect, on the per cent scale that the assay sets) in data set [3] amounted to 93.3%.

As for `N#C/N=C(\NCCCCCCC(=O)N(Cc1ccccc1)OC1CCCCC1)Nc1ccncc1`, the values for the IC50 (in [4]; with PC-3; in the data set with HCT-116) were 0.02 nM, 0.3 nM and 0.4 nM, respectively.

In data set [5], `O=C(NCc1ccc(CO)cc1)Nc1ccc(S(=O)(=O)N2CC3CCC(C2)O3)cc1` yielded an EC50 of 1490 nM. The Emax in [6] amounted to 247%.

On to `O=S(=O)(c1ccc(CNc2ccc3cccn3c2)cc1)c1cc(F)cc(F)c1`, for which the IC50 – broadly, the midpoint of a concentration-inhibition curve – with A2780 turned out to be 360 nM.

`Nc1ccc(/C=C/C(=O)NCc2cc3cc(-c4ccc(C(=O)N5CCC(F)(F)CC5)cc4)cc(-c4ccc(F)cc4)c3o2)cn1` [PADNARSERTIB]: in data set [7], inhibition was half-maximal at 120 nM (IC50).

For the molecule `O=C(/C=C/c1cccnc1)NCCCCC1CCN(C(=O)c2ccc(N3CCN(CCCCCCC#Cc4cccc5c4CN(C4CCC(=O)NC4=O)C5=O)CC3)cc2)CC1` (stereo unspecified), the DC50 in [2] was below 1 nM. For the same molecule, the Emax in [3] was 92.5%.

The molecule `Cc1nc2ccccc2n(Cc2ccc(C(=O)NCc3cccnc3)cc2)c1=O` showed a half-inhibitory concentration (IC50) in the data set on HepG2 of 1690 nM.

Take `O=C1C=C2Cc3cc(O)c(O)cc3C(c3ccccc3O)=C2C=C1O`: the concentration for a half-maximal effect (EC50) in data set [8] was determined as 3500 nM.

At Cytochrome P450 2C9, `O=C(NC[C@@H]1CCOC1)c1ccc(NC(=O)N2Cc3ccccc3C2)cc1` registered an IC50 above 20000 nM.

In the case of `CCCn1c(=O)c(-c2ccc(C(=O)NCc3cccnc3)cc2)nc2ccccc21`, in the data set with HepG2, the IC50 stood at 1950 nM.
